These results are taken from patent US20250034097A1, “MICROBIOCIDAL ISONICOTINIC AMIDE DERIVATIVES” (SYNGENTA CROP PROTECTION AG, priority 2021, published 2025).

As usually defined, the inhibition of growth is how much of the control response was suppressed. Lower therefore signals a weak effect.

For test [1], the system named is Glomerella lagenarium. The test is described as follows: Glomerella lagenarium syn Colletotrichum lagenarium (anthracnose), growth inhibition in nutrient broth. Format: cell-based. As to conditions: Colletotrichum orbiculare, PDB broth, 24° C., 72 hours, photometric at 620 nm, compared to untreated control. As to the method:
(§1) Conidia of the fungus from cryogenic storage were directly mixed into nutrient broth (PDB potato dextrose broth). A DMSO solution of the test compounds was placed into a microtiter plate (96-well format) and the nutrient broth containing the fungal spores was added to it. The test plates were incubated at 24° C. and the inhibition of growth was determined photometrically after 72 hours at 620 nm.

Test [2] has as its system Pyrenophora teres. The test is described as follows: Pyrenophora teres (net blotch of barley), barley leaf segments, preventive. The class given is in vivo. As to conditions: 200 ppm, assessed 4 dpi, compared to untreated control. The method, then: Barley leaf segments are placed on agar in multiwell plates (24-well format) and sprayed with test solutions. After drying, the leaf disks are inoculated with a spore suspension of the fungus. After appropriate incubation, the activity of a compound is assessed 4 dpi (days after inoculation) as preventive fungicidal activity.

For test [3], the system named is Alternaria solani. As to the kind of experiment: Alternaria solani (early blight of tomato), tomato leaf disks, preventive. The class given is in vivo. The conditions noted are these: 200 ppm, assessed 4 dpi, compared to untreated control. The method, then:
Alternaria solani (Early Blight of Tomato) Tomato leaf disks are placed on water agar in multiwell plates (24-well format) and sprayed with test solutions. After drying, the leaf disks are inoculated with a spore suspension of the fungus. After appropriate incubation the activity of a compound is assessed 4 dpi (days post inoculation) as preventive fungicidal activity.

Test [4] concerns Sclerotinia sclerotiorum. As to the kind of experiment: Sclerotinia sclerotiorum (cottony rot, white mold), growth inhibition in nutrient broth. As to conditions: 20 ppm; PDB broth, 24° C., 72 hours, photometric at 620 nm; compared to untreated control. The class given is cell-based. The method, then: Mycelial fragments of the fungus prepared from a fresh liquid culture were directly mixed into nutrient broth (PDB potato dextrose broth). A DMSO solution of the test compounds was placed into a microtiter plate (96-well format) and the nutrient broth containing the fungal spores was added to it. The test plates were incubated at 24° C. and the inhibition of growth was determined photometrically after 72 hours at 620 nm.

In test [5] the test system is Monographella nivalis. The test is described as follows: Monographella nivalis syn. Microdochium nivale (snow mould, foot rot), growth inhibition in nutrient broth. The class given is cell-based. As to conditions: "at ppm" (concentration not given); PDB broth, 24° C., 72 hours, photometric at 620 nm; compared to untreated control. The method, then: as §1

As for `Cc1ncc(Oc2cccc(C3CC3)c2)c(C(=O)NCCc2ccc(Cl)cc2Cl)n1` [Compound 1.1, 5-(3-cyclopropylphenoxy)-N-[2-(2,4-dichlorophenyl)ethyl]-2-methyl-pyrimidine-4-carboxamide], the inhibition of growth at 20 ppm in test [1] is no less than 80%.

For `Cc1ncc(Oc2cccc(C3CC3)c2)c(C(=O)NCC(F)c2ccc(Cl)cc2Cl)n1` (centres unmarked) [Compound 1.2, 5-(3-cyclopropylphenoxy)-N-[2-(2,4-dichlorophenyl)-2-fluoro-ethyl]-2-methyl-pyrimidine-4-carboxamide], in test [2], the “control of Pyrenophora teres” value was “at least 80%”. The “control of Alternaria solani” value in test [3] was “at least 80%”. The same compound yielded an inhibition of growth at 20 ppm in test [1] of no less than 80%. Also, the “control of Sclerotinia sclerotiorum” value in test [4] was “at least 80%”. Besides, in test [5], the “control of Monographella nivalis” value is “at least 80%”.

Consider `Cc1nncc(Oc2cccc(C3CC3)c2)c1C(=O)NCC(F)c1ccc(Cl)cc1Cl` (centres unmarked) [Compound 2.1, 5-(3-cyclopropylphenoxy)-N-[2-(2,4-dichlorophenyl)-2-fluoro-ethyl]-3-methyl-pyridazine-4-carboxamide], for which, in test [1], the inhibition of growth at 20 ppm was no less than 80%.

For `CC(C)Oc1nncc(Oc2cccc(C3CC3)c2)c1C(=O)NCC(F)c1ccc(Cl)cc1Cl` (centres unmarked) [Compound 2.4, 5-(3-cyclopropylphenoxy)-N-[2-(2,4-dichlorophenyl)-2-fluoro-ethyl]-3-isopropoxy-pyridazine-4-carboxamide], the inhibition of growth at 20 ppm in test [1] is no less than 80%.

Regarding `C=C(C)COc1nncc(Oc2cccc(C3CC3)c2)c1C(=O)NCC(F)c1ccc(Cl)cc1Cl` (centres unmarked) [Compound 2.5, 5-(3-cyclopropylphenoxy)-N-[2-(2,4-dichlorophenyl)-2-fluoro-ethyl]-3-(2-methylallyloxy)pyridazine-4-carboxamide], the inhibition of growth at 20 ppm in test [1] was no less than 80%.

Take `O=C(NCC(F)c1ccc(Cl)cc1Cl)c1c(Oc2cccc(C3CC3)c2)cnnc1C#CC1CC1` (centres unmarked) [Compound 2.6, 3-(2-cyclopropylethynyl)-5-(3-cyclopropylphenoxy)-N-[2-(2,4-dichlorophenyl)-2-fluoro-ethyl]pyridazine-4-carboxamide]: in test [1], the inhibition of growth at 20 ppm is no less than 80%.

In test [1], `C=C(C)c1nncc(Oc2cccc(C3CC3)c2)c1C(=O)NCC(F)c1ccc(Cl)cc1Cl` (centres unmarked) [Compound 2.7, 5-(3-cyclopropylphenoxy)-N-[2-(2,4-dichlorophenyl)-2-fluoro-ethyl]-3-isopropenyl-pyridazine-4-carboxamide] registered an inhibition of growth at 20 ppm of no less than 80%.

The compound `O=C(NCC(F)c1ccc(Cl)cc1Cl)c1c(Oc2cccc(C3CC3)c2)cnnc1C1CC1` (centres unmarked) [Compound 2.8, 3-cyclopropyl-5-(3-cyclopropylphenoxy)-N-[2-(2,4-dichlorophenyl)-2-fluoro-ethyl]pyridazine-4-carboxamide] gave an inhibition of growth at 20 ppm in test [1] of no less than 80%.

In the case of `CC(C)c1nncc(Oc2cccc(C3CC3)c2)c1C(=O)NCC(F)c1ccc(Cl)cc1Cl` (centres unmarked) [Compound 2.9, 5-(3-cyclopropylphenoxy)-N-[2-(2,4-dichlorophenyl)-2-fluoro-ethyl]-3-isopropyl-pyridazine-4-carboxamide], the inhibition of growth at 20 ppm in test [1] is no less than 80%.

`O=C(NCC(F)c1ccc(Cl)cc1Cl)c1cnncc1Oc1cccc(C2CC2)c1` (centres unmarked) [Compound 2.10, 5-(3-cyclopropylphenoxy)-N-[2-(2,4-dichlorophenyl)-2-fluoro-ethyl]pyridazine-4-carboxamide] gave an inhibition of growth at 20 ppm in test [1] of no less than 80%.

Consider `COc1nncc(Oc2cccc(C3CC3)c2)c1C(=O)NCCc1ccc(Cl)cc1Cl` [Compound 2.12, 5-(3-cyclopropylphenoxy)-N-[2-(2,4-dichlorophenyl)ethyl]-3-methoxy-pyridazine-4-carboxamide], for which the inhibition of growth at 20 ppm in test [1] is no less than 80%.

In test [1], `O=C(NCC(F)c1ccc(Cl)cc1Cl)c1c(Oc2cccc(C3CC3)c2)cnnc1O` (centres unmarked) [Compound 2.15, 5-(3-cyclopropylphenoxy)-N-[2-(2,4-dichlorophenyl)-2-fluoro-ethyl]-3-hydroxy-pyridazine-4-carboxamide] displayed an inhibition of growth at 20 ppm of no less than 80%.

In test [1], `CC(C)c1nncc(Oc2cccc(C3CC3)c2)c1C(=O)NC[C@H](F)c1ccc(Cl)cc1Cl` [Compound 2.16, 5-(3-cyclopropylphenoxy)-N-[(2R)-2-(2,4-dichlorophenyl)-2-fluoro-ethyl]-3-isopropyl-pyridazine-4-carboxamide] had an inhibition of growth at 20 ppm of no less than 80%.
